These results are taken from patent publication US9943542B2, “Compositions and methods for obtaining an improved lung function” (PHARMALUNDENSIS AB, priority 2013, dated 2018).

The test system of series [1] is lung function (FEV1) of man with moderately severe COPD. Put plainly: Sequential 2-week treatments in one person with moderately severe COPD. Format: in vivo, human. On the procedure: After having stable lung function for around a month, they took 2.73 g activated charcoal in water daily for 2 weeks. […] After that, […] instead took 270 mg I2 daily in a vegetable capsule daily for 2 weeks. […] Thereafter, […] instead took 100 mg potassium perchlorate daily for 2 weeks. […] Following this, […] instead took 3 g IAC (prepared according to example 2, and consisting of 2.73 g activated charcoal with 270 mg iodine) daily for 2 weeks. […] Finally, they took a combination of 100 mg potassium perchlorate and 3 g IAC daily for 2 weeks.

The subject of a further series is patients with COPD. Conditions: administered orally; cited from earlier work.
For series [2], the target named is T1, sodium/iodide symporter (NIS) (Homo sapiens, UniProt Q92911).
T1 construct: host or cells: thyroid gland of human subjects (in vivo)
T1 sequence (Q92911 1-643): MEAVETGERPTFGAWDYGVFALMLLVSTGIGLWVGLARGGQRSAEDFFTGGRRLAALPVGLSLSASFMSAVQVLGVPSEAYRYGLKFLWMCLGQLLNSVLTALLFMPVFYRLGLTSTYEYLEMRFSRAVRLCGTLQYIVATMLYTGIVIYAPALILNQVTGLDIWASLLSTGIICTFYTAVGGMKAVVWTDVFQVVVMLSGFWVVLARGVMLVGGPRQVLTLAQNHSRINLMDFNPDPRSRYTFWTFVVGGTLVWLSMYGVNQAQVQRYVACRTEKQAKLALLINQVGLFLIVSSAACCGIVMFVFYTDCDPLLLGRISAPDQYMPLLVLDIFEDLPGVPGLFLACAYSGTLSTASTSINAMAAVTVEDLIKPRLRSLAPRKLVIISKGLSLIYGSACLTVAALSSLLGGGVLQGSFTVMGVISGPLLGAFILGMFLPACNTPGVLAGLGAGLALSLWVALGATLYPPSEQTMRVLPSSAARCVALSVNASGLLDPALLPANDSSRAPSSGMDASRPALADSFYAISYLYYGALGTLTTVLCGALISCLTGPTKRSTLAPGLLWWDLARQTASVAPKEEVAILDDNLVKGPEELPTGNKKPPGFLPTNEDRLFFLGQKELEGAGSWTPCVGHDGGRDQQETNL
Conditions: humans; cited from earlier work.

For series [3] the following is noted: in vivo; cited from earlier work.
Series [4] addresses human sodium/iodide symporter (Homo sapiens, UniProt Q92911). The note with it: versus perchlorate, on a molar concentration basis in serum; cited from earlier work.
Series [5] relates to patients with stable chronic bronchitis. The note with it: cited from earlier work.

`II` [I2, iodine]: in series [1] (in vivo), the “effect on lung function (FEV1), in words” value is “did not improve their lung function”. Further, in the series on patients with COPD, the “effect on lung function” value is reported as “does not improve the lung function”.
As to `[O-][Cl+3]([O-])([O-])O` [potassium perchlorate], the “effect on lung function (FEV1), in words” value in series [1] (daily for 2 weeks, one patient) is “did not improve the lung function at all”. In addition, the “level that can temporarily inhibit the thyroid gland's ability to adsorb iodine from the bloodstream” value in series [2] is “above 0.007 mg/(kg·d)”. In addition, the “metabolism and storage in the body” value in series [3] was “neither metabolised nor stored in the body”.
Consider `N#C[S-].[Na+]` [thiocyanate, Thiocyanate], for which, in series [4], the “relative potency for inhibiting iodide uptake by the sodium/iodide symporter” value is “lower than that of perchlorate”.
Consider Iodinated glycerol, for which the “improvement in pulmonary function” value in series [5] (16 weeks treatment) was “lack significant improvement”. Moreover, the side effects result in series [5] (human, in vivo) was “side effects such as iodine poisoning”.
